Experimental data from patent publication US20240317689A1, “POTASSIUM CHANNEL MODULATOR, COMPOSITION AND APPLICATION” (NEUSHEN THERAPEUTICS (SHANGHAI) CO., LTD, priority 2021, published 2024).

What follows are compounds tested against T1, KCNQ2/3 potassium ion channel (Homo sapiens, UniProt O43525+O43526) (assay: KCNQ2/3 potassium ion channel activation assay (whole-cell patch clamp, hKCNQ-CHO cells)). Details: test concentration 0.05 μM, read-out: Enhancment % (current enhancement multiple).
T1 construct: expressed in transfected cells; host or cells: CHO cells (hKCNQ-CHO)
Type: cell-based
Method: Example 64: KCNQ2/3 Potassium Ion Channel Activation Assay
hKCNQ-CHO cells were cultured at 37° C. in a humidified environment of 5% CO2.
• 2.1. Extracellular fluid (mM): NaCl 145, KCl 4, CaCl2 2, MgCl2 1, Glucose 10, HEPES 10. The pH value of the extracellular fluid was adjusted to 7.4 with NaOH, and the osmotic pressure was adjusted to about 295 mOsm. • 2.2. Intracellular fluid (mM (mmol/L)): KOH 31.25, KCl 120, EGTA 10, MgCl2 1.75, CaCl2 5.374, HEPES 10, Na-ATP 4. The pH value of the intracellular fluid was adjusted to 7.4 with HCl, and the osmotic pressure was adjusted to about 285 mOsm. • 2.3. The extracellular fluid should be prepared once a week, and the intracellular fluid should be stored at −20° C. after preparation.
The model positive reference compound Retigabine (RTG) was dissolved with 100% DMSO and configured as a 10 mM working solution. The test compounds were dissolved with 100% DMSO and configured as a 10 mM working solution. The final concentration of DMSO in the test solution should be less than 0.3%.
Whole-cell patch clamp was performed at room temperature. The electrical signals recorded with the EPC 10 USB amplifier (HEKA Elektronik, Germany) were filtered by a 3 kHz low-pass filter, and finally recorded in PatchMaster 2×90.5 software (HEKA Elektronik, Germany). At this step, the quality control standard was that the cell high-resistance sealing was greater than 500 MOhms, and the detection current was greater than 0.4 nA.
The recording electrodes were pulled out and polished with a vertical puller (NARISHIGE PC-10, Japan) using a borosilicate glass capillary (GC150tF-10, Harvard Apparatus Co., UK). At this step, the quality control standard was that the electrode resistance was between 2 MΩ and 5 MΩ.
During the recording process of the whole-cell patch clamp, a continuous perfusion system (BT100-2J, LongerPump, China) was used to continuously perfuse the extracellular fluid. The perfusion system was installed on the stage of an upright microscope (FN-S2N, Nikon, Japan), and the perfusion head was manually positioned under the microscope.
The voltage command for detecting the amplitude of hKCNQ current was as follows: the cell stepped from the clamping potential of −80 mV to −30 mV, and held for 1500 ms; and then the clamping voltage was lowered to −120 my and held for 500 ms; finally, the voltage returned to the clamping potential of −80 mV. The detection voltage command was repeated every 15,000 milliseconds, and the command was continuously executed during the compound test. The quality control standard for compound action stability was the current amplitude under 5 consecutive voltage commands, and the coefficient of variation of the current amplitude was <5%.
Data analysis was performed using PatchMaster 2×90.5 software (HEKA Elektronik, Germany) and Excel 2013 (Microsoft, USA) software. For each cell's patch clamp recording, the amplitude of the hKCNQ channel current (Itest) corresponding to the test compound concentration should be obtained. The enhanced channel current was obtained by subtracting the cell's original channel current (Icontrol) from Itest and dividing by Icontrol to obtain the current enhancement multiple. That is, the current enhancement multiple (Enhancment %)=(Itest −Icontrol)/Icontrol[…].

Row | activation at 0.05 µM [%] | Compound
1 | < 50 | CC1=CCN(c2cc(C)c(NC(=O)CC(C)(C)C)c(C)c2)Cc2ccc(F)cc21 [Compound 028, N-(4-(7-fluoro-5-methyl-1,3-dihydro-2H-benzo[c]azepin-2-yl)-2,6-dimethylphenyl)-3,3-dimethylbutanamide]
2 | < 50 | CSc1ccc2c(c1)CCCN(c1cc(C)c(NC(=O)CC(C)(C)C)c(C)c1)C2 [Compound 014, N-(2,6-dimethyl-4-(7-(methylthio)-1,3,4,5-tetrahydro-2H-benzo[c]azepin-2-yl)phenyl)-3,3-dimethylbutanamide]

More lines, now with the values behind:

Row | Compound | activation at 0.05 µM [%]
3 | Cc1cc(N2CCCc3cc(OC4CCC4)ccc3C2)cc(C)c1NC(=O)CC(C)(C)C [Compound 010, N-(4-(7-cyclobutoxy-1,3,4,5-tetrahydro-2H-benzo[c]azepin-2-yl)-2,6-dimethylphenyl)-3,3-dimethylbutanamide] | > 100
4 | Cc1cc(N2CCCc3cc(OC(F)F)ccc3C2)cc(C)c1NC(=O)CC(C)(C)C [Compound 005, N-(4-(7-(difluoromethoxy)-1,3,4,5-tetrahydro-2H-benzo[c]azepin-2-yl)-2,6-dimethylphenyl)-3,3-dimethylbutanamide] | < 50

Same assay, conditions: test concentration 3 μM, read-out: Enhancment % (current enhancement multiple)

Row | activation at 3 µM [%] | Compound
5 | > 100 | Cc1cc(N2CCSc3cc(F)ccc3C2)cc(C)c1NC(=O)CC(C)(C)C [Compound 025, N-(4-(8-fluoro-2,3-dihydrobenzo[f][1,4]thiazepin-4(5H)-yl)-2,6-dimethylphenyl)-3,3-dimethylbutanamide]
6 | > 100 | Cc1cc(N2CCCc3cc(OCCC(F)(F)F)ccc3C2)cc(C)c1NC(=O)CC(C)(C)C [Compound 058, N-(2,6-dimethyl-4-(7-(3,3,3-trifluoropropoxy)-1,3,4,5-tetrahydro-2H-benzo[c]azepin-2-yl)phenyl)-3,3-dimethylbutanamide]
7 | > 100 | Cc1cc(N2CCCc3cc(F)c(F)cc3C2)c(Cl)c(C)c1NC(=O)CC(C)(C)C [Compound 048, N-(3-chloro-4-(7,8-difluoro-1,3,4,5-tetrahydro-2H-benzo[c]azepin-2-yl)-2,6-dimethylphenyl)-3,3-dimethylbutanamide]
8 | 50 to 100 | CC1=CCN(c2cc(C)c(NC(=O)CC(C)(C)C)c(C)c2)Cc2ccc(F)cc21 [Compound 028, N-(4-(7-fluoro-5-methyl-1,3-dihydro-2H-benzo[c]azepin-2-yl)-2,6-dimethylphenyl)-3,3-dimethylbutanamide]
9 | > 100 | Cc1cc(N2CCCc3cc(OC4CCC(C(F)(F)F)CC4)ccc3C2)cc(C)c1NC(=O)CC(C)(C)C (stereo not shown) [Compound 059, N-(2,6-dimethyl-4-(7-((4-(trifluoromethyl)cyclohexyl)oxy)-1,3,4,5-tetrahydro-2H-benzo[c]azepin-2-yl)phenyl)-3,3-dimethylbutanamide]
10 | > 100 | Cc1cc(N2CCCc3cc(OC(F)(F)F)ccc3C2)cc(C)c1NC(=O)CC(C)(C)C [Compound 006, N-(2,6-dimethyl-4-(7-(trifluoromethoxy)-1,3,4,5-tetrahydro-2H-benzo[c]azepin-2-yl)phenyl)-3,3-dimethylbutanamide]
11 | > 100 | Cc1cc(N2CCCc3cc(OCC4(C(F)(F)F)CC4)ccc3C2)cc(C)c1NC(=O)CC(C)(C)C [Compound 054, N-(2,6-dimethyl-4-(7-((1-(trifluoromethyl)cyclopropyl)methoxy)-1,3,4,5-tetrahydro-2H-benzo[c]azepin-2-yl)phenyl)-3,3-dimethylbutanamide]
12 | 50 to 100 | CSc1ccc2c(c1)CCCN(c1cc(C)c(NC(=O)CC(C)(C)C)c(C)c1)C2 [Compound 014, N-(2,6-dimethyl-4-(7-(methylthio)-1,3,4,5-tetrahydro-2H-benzo[c]azepin-2-yl)phenyl)-3,3-dimethylbutanamide]
13 | > 100 | Cc1cc(N2CCS(=O)(=O)c3cc(F)ccc3C2)cc(C)c1NC(=O)CC(C)(C)C [Compound 026, N-(4-(8-fluoro-1,1-dioxido-2,3-dihydrobenzo[f][1,4]thiazepin-4(5H)-yl)-2,6-dimethylphenyl)-3,3-dimethylbutanamide]
14 | > 100 | Cc1cc(N2CCCc3cc(OC4CC4)ccc3C2)cc(C)c1NC(=O)CC(C)(C)C [Compound 009, N-(4-(7-cyclopropoxy-1,3,4,5-tetrahydro-2H-benzo[c]azepin-2-yl)-2,6-dimethylphenyl)-3,3-dimethylbutanamide]

Further lines, the compound ahead of its results:

Row | Compound | activation at 3 µM [%]
15 | Cc1cc(N2CCCc3cc(OC4CCC4)ccc3C2)cc(C)c1NC(=O)CC(C)(C)C [Compound 010, N-(4-(7-cyclobutoxy-1,3,4,5-tetrahydro-2H-benzo[c]azepin-2-yl)-2,6-dimethylphenyl)-3,3-dimethylbutanamide] | > 100
16 | Cc1cc(N2CCCc3cc(OC(F)F)ccc3C2)cc(C)c1NC(=O)CC(C)(C)C [Compound 005, N-(4-(7-(difluoromethoxy)-1,3,4,5-tetrahydro-2H-benzo[c]azepin-2-yl)-2,6-dimethylphenyl)-3,3-dimethylbutanamide] | > 100
17 | Cc1cc(N2CCN(C)c3cc(F)ccc3C2)cc(C)c1NC(=O)CC(C)(C)C [Compound 024, N-(4-(8-fluoro-1-methyl-1,2,3,5-tetrahydro-4H-benzo[e][1,4]diazepin-4-yl)-2,6-dimethylphenyl)-3,3-dimethylbutanamide] | 50 to 100
18 | Cc1cc(N2CCCc3cc(OCC(F)(F)CC(F)(F)F)ccc3C2)cc(C)c1NC(=O)CC(C)(C)C [Compound 062, N-(2,6-dimethyl-4-(7-(2,2,4,4,4-pentafluorobutoxy)-1,3,4,5-tetrahydro-2H-benzo[c]azepin-2-yl)phenyl)-3,3-dimethylbutanamide] | > 100
19 | Cc1cc(N2CCC3(CC3)c3cc(F)c(F)cc3C2)cc(C)c1NC(=O)CC(C)(C)C [Compound 049, N-(4-(7,8-difluoro-3,4-dihydrospiro[benzo[c]azepine-5,1′-cyclopropan]-2(1H)-yl)-2,6-dimethylphenyl)-3,3-dimethylbutanamide] | > 100
20 | CCC(C)Oc1cc2c(cc1F)CN(c1cc(C)c(NC(=O)CC(C)(C)C)c(C)c1)CCC2 (stereo not shown) [Compound 039, N-(4-(7-(sec-butoxy)-8-fluoro-1,3,4,5-tetrahydro-2H-benzo[c]azepin-2-yl)-2,6-dimethylphenyl)-3,3-dimethylbutanamide] | > 100
21 | Cc1cc(N2CCCc3cc(OCCCC(F)(F)C(F)(F)F)ccc3C2)cc(C)c1NC(=O)CC(C)(C)C [Compound 061, N-(2,6-dimethyl-4-(7-((4,4,5,5,5-pentafluoropentyl)oxy)-1,3,4,5-tetrahydro-2H-benzo[c]azepin-2-yl)phenyl)-3,3-dimethylbutanamide] | > 100
22 | Cc1cc(N2CCCc3cc(O[C@H](C)C(F)(F)F)c(F)cc3C2)cc(C)c1NC(=O)CC(C)(C)C [Compound 037, (R)—N-(4-(8-fluoro-7-((1,1,1-trifluoropropan-2-yl)oxy)-1,3,4,5-tetrahydro-2H-benzo[c]azepin-2-yl)-2,6-dimethylphenyl)-3,3-dimethylbutanamide] | > 100
23 | Cc1cc(N2CCCc3cc(OCC(C)C(F)(F)F)ccc3C2)cc(C)c1NC(=O)CC(C)(C)C (stereo not shown) [Compound 053, N-(2,6-dimethyl-4-(7-(3,3,3-trifluoro-2-methylpropoxy)-1,3,4,5-tetrahydro-2H-benzo[c]azepin-2-yl)phenyl)-3,3-dimethylbutanamide] | > 100
24 | Cc1cc(N2CCCc3cc(OC(C)C(F)(F)F)c(F)cc3C2)cc(C)c1NC(=O)CC(C)(C)C (stereo not shown) [Compound 034, N-(4-(8-fluoro-7-((1,1,1-trifluoropropan-2-yl)oxy)-1,3,4,5-tetrahydro-2H-benzo[c]azepin-2-yl)-2,6-dimethylphenyl)-3,3-dimethylbutanamide] | > 100
25 | Cc1cc(N2CCCc3cc(OCCCCF)ccc3C2)cc(C)c1NC(=O)CC(C)(C)C [Compound 063, N-(4-(7-(4-fluorobutoxy)-1,3,4,5-tetrahydro-2H-benzo[c]azepin-2-yl)-2,6-dimethylphenyl)-3,3-dimethylbutanamide] | > 100
26 | Cc1cc(N2CCCc3cc(O[C@@H](C)C(F)(F)F)c(F)cc3C2)cc(C)c1NC(=O)CC(C)(C)C [Compound 036, (S)—N-(4-(8-fluoro-7-((1,1,1-trifluoropropan-2-yl)oxy)-1,3,4,5-tetrahydro-2H-benzo[c]azepin-2-yl)-2,6-dimethylphenyl)-3,3-dimethylbutanamide] | > 100
27 | Cc1cc(N2CCCc3cc(OC4COC4)ccc3C2)cc(C)c1NC(=O)CC(C)(C)C [Compound 013, N-(2,6-dimethyl-4-(7-(oxetan-3-yloxy)-1,3,4,5-tetrahydro-2H-benzo[c]azepin-2-yl)phenyl)-3,3-dimethylbutanamide] | > 100
28 | Cc1cc(N2CCCc3cc(OC4CCC4)c(F)cc3C2)cc(C)c1NC(=O)CC(C)(C)C [Compound 043, N-(4-(7-cyclobutoxy-8-fluoro-1,3,4,5-tetrahydro-2H-benzo[c]azepin-2-yl)-2,6-dimethylphenyl)-3,3-dimethylbutanamide] | > 100
